Measured values reported in patent US8426387B2, “Treatments for cancer” (priority 2006, dated 2013).

B1: rMaspin(i): Purified recombinant maspin produced in baculovirus-infected Spodoptera frugiperda Sf9 insect cells (protein, UniProt P36952 1-375, looked up)
Serpin B5: MDALQLANSAFAVDLFKQLCEKEPLGNVLFSPICLSTSLSLAQVGAKGDTANEIGQVLHFENVKDVPFGFQTVTSDVNKLSSFYSLKLIKRLYVDKSLNLSTEFISSTKRPYAKELETVDFKDKLEETKGQINNSIKDLTDGHFENILADNSVNDQTKILVVNAAYFVGKWMKKFSESETKECPFRVNKTDTKPVQMMNMEATFCMGNIDSINCKIIELPFQNKHLSMFILLPKDVEDESTGLEKIEKQLNSESLSQWTNPSTMANAKVKLSIPKFKVEKMIDPKACLENLGLKHIFSEDTSDFSGMSETKGVALSNVIHKVCLEITEDGGDSIEVPGARILQHKDELNADHPFIYIIRHNKTRNIIFFGKFCSP
modifications: recombinant, Sf9 baculovirus-expressed
notes: Purified recombinant maspin produced in baculovirus-infected Spodoptera frugiperda Sf9 insect cells

Experiments:
[1] = system: estrogen receptor positive cell lines; assay: cells
Method: (§1) The relationship between diet and cancer is an active area of investigation. […] Fruits and vegetables are known to be good sources of dietary boron. To explore a possible cellular mechanism for the effect of boron on prostate cancer 1 mM boric acid was added to several cancer cell lines; three human prostate, and for comparison, five human breast cell lines.

DU-145 = conditions: 1 mM boric acid
Method: as §1

[2] = system: DU-145 androgen receptor negative human prostate cell line
Method: as §1

[3] = system: androgen receptor positive and receptor negative human prostate cancer cell lines; conditions: 1 mM boric acid; RPMI1640 media
Method: as §1

[4] = system: a breast cancer cell line; conditions: 1 mM boron
Method: as §1

DU-145 cell line = conditions: 1 mM boron
Method: as §1

[5] = system: estrogen receptor negative human breast cancer cell lines; conditions: 1 mM boric acid; two cell lines; MEM supplemented with 10% FBS and 25 mM HEPES
Method: as §1

[6] = target: T1, DU145 cell surface-bound uPA (Homo sapiens, UniProt P00749); conditions: DU145 cells; read-out: Ki value in cell surface-mediated plasminogen activation; cited from earlier work
T1 construct: endogenous in cells; host or cells: DU145 prostate carcinoma cells

Molecule | growth inhibition ([1]; 1 mM boric acid, two estrogen receptor positive cell lines, MEM media or RPMI1640, supplemented) | inhibition at 1000 µM ([1]; Homo sapiens, 216 h, read-out: inhibition in growth) [%] | apoptosis by flow cytometry ([1]; third estrogen receptor positive breast cancer cell line, preliminary results) | cell cycle block or apoptosis (DU-145) | growth ([2]; 1 mM boric acid, supplemented RPMI media) | reversibility of growth inhibition ([2]; boric acid removed on Day 3, cell growth resumed by Day 6) | growth response [3] | apoptosis or necrosis [4] | apoptosis or necrosis (DU-145 cell line) | growth inhibition [5] | Ki [6] [nM]
OB(O)O [boric acid] | failed to exhibit growth inhibition | 20 | may be inducing apoptosis | does not block the cell cycle or induce apoptosis | completely arrested | reversible | failed to show a response | does not induce apoptosis or necrosis | does not induce apoptosis or necrosis | did not show growth inhibition | –
B1 | – | – | – | – | – | – | – | – | – | – | 20
